The test system of experiment [1] is Clostridium difficile ATCC BAA-1805. Put plainly: microbe, parasite or virus in culture. The conditions noted are these: Clostridioides difficile, ATCCBAA1805, read-out: MIC (Concurrent) μg/mL.
Experimental: The antibacterial activity of inventive compounds was determined in duplicate in a Minimum Inhibitory Concentration (MIC) assay.
The antibacterial activity of 6027 acetate was measured using the in vitro broth microdilution assay under assay conditions described by the Clinical and Laboratory Standards Institute. […] Pre-formulated DMSO stock solution (26.67 mg/mL) was provided by sponsor. The 26.67 mg/mL stock solution was then diluted in DMSO to prepare a 6.4 mg/mL working stock solution. The 6.4 mg/mL working stock solution was diluted by 2-fold serial titrations in DMSO, for a total of 11 test concentrations. A 4 μl aliquot of each dilution was added to 196 of broth medium seeded with the organism suspension in wells of a 96 well plate (bacterial count: 2 −8×10^5 colony forming units/mL final). The final volume was 200 μl in each well and the final DMSO concentration was 2 percent. Test concentrations were 128 to 0.125 μg/mL.
Following incubation, the plates were visually examined, and wells were scored for growth or complete growth inhibition to define the minimum inhibitory concentration. […] Vehicle-control and Vancomycin or Linezolid, as depicted at Table 8, were used as blank and positive controls, respectively.
Experiment [2] concerns Staphylococcus aureus NARSA NRS127. Put plainly: microbe, parasite or virus in culture. The following applies: Staphylococcus aureus, NRS127, read-out: MIC (Concurrent) μg/mL. The class given is cell-based.
In experiment [3] the test system is Staphylococcus aureus ATCC 29213. Put plainly: MIC broth microdilution, method 1. The class given is cell-based. The conditions noted are these: Staphylococcus aureus, ATCC29213, reference compound, read-out: MIC (Concurrent). On the technique in general: Dilution methods test growth across graded concentrations, often in twofold steps.
Experiment [4] has as its system Streptococcus agalactiae ATCC 12386. Put plainly: MIC broth microdilution, method 1. The conditions noted are these: Streptococcus agalactiae, ATCC12386, reference compound, read-out: MIC (Concurrent). It counts as cell-based.
The test system of experiment [5] is Staphylococcus aureus NARSA NRS119. Put plainly: microbe, parasite or virus in culture. It counts as cell-based. The conditions noted are these: Staphylococcus aureus, NRS119, read-out: MIC (Concurrent) μg/mL.
In experiment [6] the test system is Staphylococcus aureus ATCC BAA-1556, USA300 MRSA. Put plainly: microbe, parasite or virus in culture. It counts as cell-based. The following applies: Staphylococcus aureus. Here is the method:
Pre-formulated compound solution was diluted in 100% DMSO to prepare a 1.6 mg/mL working stock solution. […] The concentration range was 0.032 to 32 μg/mL.

The test system of experiment [7] is Staphylococcus aureus NARSA NRS382. Put plainly: microbe, parasite or virus in culture. It counts as cell-based. The following applies: Staphylococcus aureus, NRS382, read-out: MIC (Concurrent) μg/mL.
Experiment [8] concerns Staphylococcus aureus NARSA NRS383. Put plainly: microbe, parasite or virus in culture. It counts as cell-based. The conditions noted are these: Staphylococcus aureus, NRS383, read-out: MIC (Concurrent) μg/mL.
Experiment [9] concerns Staphylococcus aureus ATCC 33591. Put plainly: microbe, parasite or virus in culture. The class given is cell-based. The following applies: Staphylococcus aureus, ATCC33591, read-out: MIC (Concurrent) μg/mL.
The test system of experiment [10] is Streptococcus pyogenes ATCC 19615. Put plainly: MIC broth microdilution, method 1. The class given is cell-based. The following applies: Streptococcus pyogenes, ATCC19615, reference compound, read-out: MIC (Concurrent).
In experiment [11] the test system is Staphylococcus aureus ATCC BAA-1717. Put plainly: microbe, parasite or virus in culture. It counts as cell-based. The following applies: Staphylococcus aureus, ATCCBAA1717, read-out: MIC (Concurrent) μg/mL.

Values after ≈ are worked out from the molar mass of the structure shown.

For `CN[C@H](CC(C)C)C(=O)N[C@H]1C(=O)N[C@@H](CC(N)=O)C(=O)N[C@H]2C(=O)N[C@H]3C(=O)N[C@H](C(=O)N[C@H](C(=O)O)c4cc(O)cc(O)c4-c4cc3ccc4O)[C@H](O)c3ccc(c(Cl)c3)Oc3cc2cc(c3O[C@@H]2O[C@H](CO)[C@@H](O)[C@H](O)[C@H]2O[C@H]2C[C@](C)(N)[C@H](O)[C@H](C)O2)Oc2ccc(cc2Cl)[C@H]1O` [Vancomycin, reference compound], the MIC in [1] worked out at 0.5 µg/mL (≈ 0.345 µM); in [2] it was 1 µg/mL (≈ 0.69 µM); in experiment [3], 0.5 mg/L (≈ 0.345 µM); in experiment [4] it was 0.5 mg/L (≈ 0.345 µM); in [5], 1 µg/mL (≈ 0.69 µM); in [6], 1 mg/L (≈ 0.69 µM). The MIC in experiment [7] came out at 1 µg/mL (≈ 0.69 µM); in experiment [8], 0.5 µg/mL (≈ 0.345 µM); in experiment [9], 1 µg/mL (≈ 0.69 µM); in experiment [10], 0.25 mg/L (≈ 0.173 µM); in [11], 0.5 µg/mL (≈ 0.345 µM).

These data come from patent US20240174714A1, “TREATMENT OF SKIN DISORDERS” (priority 2021, published 2024).
